This note sets out measurements from US10786514B2, “Dosage regiment of ferric maltol” (Shield TX (UK) Limited, priority 2015, dated 2020).

Holding throughout (format): in vivo, human
The nature of data set [1]: Phase I pharmacokinetic study: total iron binding capacity (TIBC). Conditions: over time and across 30, 60, 90 mg dose groups. Here is the method:
(§1) These studies were primarily pharmacokinetic and conducted in subjects with iron deficiency having active inflammatory disease or acute chronic inflammation. An open-label, randomised, single and repeat dose parallel group Phase I pharmacokinetic study was carried out to evaluate the effect of single and repeated twice daily (bid) oral doses of ST10 at 30 mg, 60 mg and 90 mg for 8 days.
(§2) On day 1, following fasting for at least 1.5-2 hours beforehand, ST10 was administered (30 mg, 60 mg or 90 mg) and blood samples collected over the following 6 h for analysis. 60 mg was administered as two 30 mg capsules and 90 mg was administered as three 30 mg capsules, both as a single dose. Subjects continued dosing with ST10 on the evening of day 1 then every morning and evening for the next 6 days (Days 2 to 7).
On day 8 following fasting for at least 1.5-2 hours beforehand the last dosing of ST10 was administered (30 mg, 60 mg or 90 mg) and blood samples collected over the following 6 h for analysis. […]
Serum concentrations of transferrin, total iron binding capacity (TIBC), ferritin and soluble transferrin receptor; and reticulocyte haemoglobin concentrations (CHr) in whole blood were measured by central laboratories using appropriately validated methods. […]

Data set [2] can be described thus: Phase I pharmacokinetic study: serum total iron concentration. Conditions: for maximum mean serum total iron concentration: Day 1, iron-deficient subjects. How it is done:
as §1
(§3) 24 subjects with iron deficiency (with or without anaemia) were randomly allocated to one of the three ST10 dose groups as follows:
(§4) Group 1: 9 subjects received ST10, 30 mg twice daily for 7 days (days 1-7) plus a final 30 mg dose on the morning of day 8.
(§5) Group 2: 8 subjects received ST10, 60 mg twice daily for 7 days (days 1-7) plus a final 60 mg dose on the morning of day 8.
(§6) Group 3: 7 subjects received ST10, 90 mg twice daily for 7 days (days 1-7) plus a final 90 mg dose on the morning of day 8.
as §2
On day 8 following fasting for at least 1.5-2 hours beforehand the last dosing of ST10 was administered (30 mg, 60 mg or 90 mg) and blood samples collected over the following 6 h for analysis.
On Days 1 and 8 blood samples were collected predose (0 h=time of ST10 dose) and at 5 minutes(for NTBI only), 15 minutes, 30 minutes, 45 minutes, and 1, 1.5, 2, 3, 4 and 6 h postdose.
These studies used transferrin saturation and total serum iron as measurements of iron uptake from the gut into the transport mechanisms. In addition serum ferritin was used as a measure of iron storage status at the end of the dosing period; all of these measurements are standard and well recognised.
One subject in the 60 mg dose group prematurely withdrew from the study on Day 7, so full profiles of all serum iron parameters were available in the 30 mg dose group for 9 subjects (days 1 and 8), in the 60 mg dose group 8 subjects on day 1 and for 7 subjects on day 8, and in the 90 mg dose group for 7 subjects (days 1 and 8).

Data set [3] is described as follows: Phase I pharmacokinetic study: tolerability. Conditions: doses above 30 mg and up to 90 mg twice daily, 8 days, iron-deficient subjects with active inflammatory disease. Here is the method: as §1, §3, §4, §5, §6

On to ferric trimaltol [ST10], for which the “total iron binding capacity, mean concentration” value in data set [1] is recorded as “approximately 70 μmol/L”. Besides, the “maximum mean serum total iron concentration” value is 32.3 µmol/L in data set [2] (30 mg oral dose group), 49.1 µmol/L in data set [2] (60 mg oral dose group) and 48.7 µmol/L in data set [2] (90 mg oral dose group). For the same substance, the “serum total iron concentrations on Day 8 versus Day 1” value in data set [2] (Day 8, 30, 60, 90 mg dose groups) is “Comparable”. For the same substance, in data set [3], the tolerability result is reported as “well tolerated”.
